Consider one compound from patent US20140134690A1, “MICROBES AND METHODS FOR PRODUCING 1-PROPANOL” (University of Georgia Research Foundation, Inc., priority 2012, published 2014).

What all share (experiment): Methylglyoxal synthase assay
Experiment [1] concerns the target T1, Pseudomonas fluorescens Pf-5 methylglyoxal synthase (mgsA), wild type (Pseudomonas protegens, UniProt Q4K7S5).
T1 sequence (Q4K7S5 1-154): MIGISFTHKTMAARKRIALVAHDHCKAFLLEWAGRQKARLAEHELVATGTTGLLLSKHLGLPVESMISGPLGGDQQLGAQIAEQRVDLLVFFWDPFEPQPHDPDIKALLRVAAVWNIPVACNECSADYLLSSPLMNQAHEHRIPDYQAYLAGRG
The format is biochemical, P. fluorescens. The settings on record: substrate dihydroxyacetone phosphate 0.15-1.5 mM; crude extract; pH 7.0; 30° C. The text has this:
(§1) 1,2-Propanediol pathway branches from glycolysis and competes for the intermediate dihydroxyacetone phosphate, with the glycolytic pathway. […] We amplified the mgsA genes from the microorganisms: C. acetobutylicum (ATCC#824), B. subtilis 168, C. difficile R20291, E. coli MG1655, T. thermophilus HB27, K. pneumoniae MGH78578, P. fluorescens Pf-5, and R. eutropha H16 respectively. These genes were cloned and expressed in wild type E. coli BW25113 using eight plasmids pRJ1-pRJ8. Each gene was under the control of the IPTG-inducible pLlacO1 promoter. Using dihydroxyacetone-phosphate as the substrate, we successfully detected the functional expression of all mgsA genes in vitro, where the specific activities varied from 0.0052 U/mg to 0.1242 U/mg (Table 1). […] Without the over-expression of mgsA gene, we also detected the native expression of E. coli mgsA, which gave a specific activity of only 0.0008 U/mg, much lower than that of any over-expression.
(§2) Using the primers listed in Table 5, the mgsA genes were PCR amplified from the genomic DNA of C. acetobutylicum (ATCC824), B. subtilis 168, Clostridium difficile R20291, E. coli MG1655, Thermus thermophilus HB27, K. pneumoniae MGH78578, Pseudomonas fluorescens Pf-5, and Ralstonia eutropha H16 respectively. […]
(§3) The assay was carried out using a two-step procedure. […] The samples were diluted 10 times before measuring the absorbance at 550 nm.

In experiment [2] the target is E. coli MG1655 methylglyoxal synthase (mgsA), wild type (Escherichia coli, UniProt P0A731). The format is biochemical. Particulars: substrate dihydroxyacetone phosphate 0.15-1.5 mM; crude extract; pH 7.0; 30° C.
Chain of E. coli MG1655 methylglyoxal synthase (mgsA), wild type (P0A731 whole entry): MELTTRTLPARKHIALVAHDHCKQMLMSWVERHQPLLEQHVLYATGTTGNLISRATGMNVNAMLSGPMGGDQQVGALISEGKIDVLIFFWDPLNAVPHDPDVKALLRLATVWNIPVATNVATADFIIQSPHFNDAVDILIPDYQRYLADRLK
Excerpt: as §1, §2, §3

The target of experiment [3] is T2, Clostridium acetobutylicum (ATCC 824) methylglyoxal synthase (mgsA), wild type (Clostridium acetobutylicum, UniProt Q97IN6).
T2 sequence (Q97IN6 1-145): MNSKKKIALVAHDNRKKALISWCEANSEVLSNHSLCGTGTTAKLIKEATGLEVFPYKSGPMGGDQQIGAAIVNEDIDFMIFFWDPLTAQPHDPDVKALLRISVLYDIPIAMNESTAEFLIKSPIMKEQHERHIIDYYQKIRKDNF
The format is biochemical, C. acetobutylicum. Particulars: substrate dihydroxyacetone phosphate 0.15-1.5 mM; crude extract; pH 7.0; 30° C.
Excerpt: as §1, §2, §3

For experiment [4], the target named is Clostridium difficile R20291 methylglyoxal synthase (mgsA), wild type (Clostridioides difficile, UniProt A0A9R0BJ64). The format is biochemical, C. difficile. The settings on record: substrate dihydroxyacetone phosphate 0.15-1.5 mM; crude extract; pH 7.0; 30° C.
Chain of Clostridium difficile R20291 methylglyoxal synthase (mgsA), wild type (A0A9R0BJ64 entry or part of it): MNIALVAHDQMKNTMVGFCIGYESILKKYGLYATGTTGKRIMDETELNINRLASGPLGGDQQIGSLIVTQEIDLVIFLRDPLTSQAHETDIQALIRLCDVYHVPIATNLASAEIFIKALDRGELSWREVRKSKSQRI
Excerpt: as §1, §2, §3

The target in experiment [5] is T3, Bacillus subtilis 168 methylglyoxal synthase (mgsA), wild type (Bacillus subtilis, UniProt P42980).
T3 sequence (P42980 1-137): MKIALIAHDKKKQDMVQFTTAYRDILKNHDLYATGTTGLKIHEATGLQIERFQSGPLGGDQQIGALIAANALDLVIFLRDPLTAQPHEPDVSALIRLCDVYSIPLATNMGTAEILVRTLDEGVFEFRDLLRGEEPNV
It is filed as biochemical, B. subtilis.
Excerpt: as §1, §2, §3

Experiment [6] addresses T4, Ralstonia eutropha H16 methylglyoxal synthase (mgsA), wild type (Cupriavidus necator, UniProt Q0KD43).
T4 sequence (Q0KD43 1-132): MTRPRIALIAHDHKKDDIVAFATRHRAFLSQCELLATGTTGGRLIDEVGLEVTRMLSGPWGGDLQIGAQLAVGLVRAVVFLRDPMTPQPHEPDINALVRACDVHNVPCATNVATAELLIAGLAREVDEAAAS
It is filed as biochemical, R. eutropha. Particulars: substrate dihydroxyacetone phosphate 0.15-1.5 mM; crude extract; pH 7.0; 30° C.
Excerpt: as §1, §2, §3

Experiment [7] deals with T5, Thermus thermophilus HB27 methylglyoxal synthase (mgsA), wild type (Thermus thermophilus, UniProt Q72HP3).
T5 sequence (Q72HP3 1-126): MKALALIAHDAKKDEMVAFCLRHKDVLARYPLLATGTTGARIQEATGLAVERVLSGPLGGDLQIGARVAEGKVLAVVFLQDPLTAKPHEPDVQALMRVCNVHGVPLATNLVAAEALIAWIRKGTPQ
It is filed as biochemical, T. thermophilus. The settings on record: substrate dihydroxyacetone phosphate 0.15-1.5 mM; crude extract; pH 7.0; 30° C.
Excerpt: as §1, §2, §3

In experiment [8] the target is Klebsiella pneumoniae MGH78578 methylglyoxal synthase (mgsA), wild type (Klebsiella pneumoniae, UniProt A6T757). The format is biochemical, K. pneumoniae. Particulars: substrate dihydroxyacetone phosphate 0.15-1.5 mM; crude extract; pH 7.0; 30° C.
Chain of Klebsiella pneumoniae MGH78578 methylglyoxal synthase (mgsA), wild type (A6T757 6-157): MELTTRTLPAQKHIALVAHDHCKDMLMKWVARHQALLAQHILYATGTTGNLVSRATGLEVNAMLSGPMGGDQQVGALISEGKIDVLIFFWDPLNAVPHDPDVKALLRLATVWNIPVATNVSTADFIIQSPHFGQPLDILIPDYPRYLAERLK
Excerpt: as §1, §2, §3

Turning to `O=C(CO)COP(=O)(O)O` [dihydroxyacetone phosphate], the “Specific Activity/Km” value is 0.0085 U/mg/mM in experiment [1]; 0.0876 U/mg/mM in experiment [2]; 0.0697 U/mg/mM in experiment [3]; 0.0415 U/mg/mM in experiment [4]; 0.1186 U/mg/mM in experiment [5] (substrate dihydroxyacetone phosphate 0.15-1.5 mM, crude extract, pH 7.0, 30° C.); 0.0074 U/mg/mM in experiment [6]. The figures for the “Specific Activity/Km” value in experiment [7] and in experiment [8] were 0.0076 U/mg/mM and 0.0058 U/mg/mM, respectively. The “ratio of specific activity/Km” value in experiment [5] (substrate dihydroxyacetone-phosphate) was determined as 0.1186.
